From patent publication US9828345B2, “Phenylpyrazole derivatives as potent ROCK1 and ROCK2 inhibitors” (BRISTOL-MYERS SQUIBB COMPANY, priority 2013, dated 2017)
Where two headings read alike, the source gives them in different places.

Key:
ROCK1 = ROCK1 (Homo sapiens, UniProt Q13464); assay: ROCK assay (Caliper LABCHIP peptide phosphorylation), ROCK1; assay type: biochemical; details: 5 μM ATP, 1.5 μM peptide substrate
ROCK2 = ROCK2 (Homo sapiens, UniProt O75116); assay: ROCK assay (Caliper LABCHIP peptide phosphorylation), ROCK2; assay type: biochemical; details: 5 μM ATP, 1.5 μM peptide substrate
ROCK2, sequence (O75116 whole entry, species assumed): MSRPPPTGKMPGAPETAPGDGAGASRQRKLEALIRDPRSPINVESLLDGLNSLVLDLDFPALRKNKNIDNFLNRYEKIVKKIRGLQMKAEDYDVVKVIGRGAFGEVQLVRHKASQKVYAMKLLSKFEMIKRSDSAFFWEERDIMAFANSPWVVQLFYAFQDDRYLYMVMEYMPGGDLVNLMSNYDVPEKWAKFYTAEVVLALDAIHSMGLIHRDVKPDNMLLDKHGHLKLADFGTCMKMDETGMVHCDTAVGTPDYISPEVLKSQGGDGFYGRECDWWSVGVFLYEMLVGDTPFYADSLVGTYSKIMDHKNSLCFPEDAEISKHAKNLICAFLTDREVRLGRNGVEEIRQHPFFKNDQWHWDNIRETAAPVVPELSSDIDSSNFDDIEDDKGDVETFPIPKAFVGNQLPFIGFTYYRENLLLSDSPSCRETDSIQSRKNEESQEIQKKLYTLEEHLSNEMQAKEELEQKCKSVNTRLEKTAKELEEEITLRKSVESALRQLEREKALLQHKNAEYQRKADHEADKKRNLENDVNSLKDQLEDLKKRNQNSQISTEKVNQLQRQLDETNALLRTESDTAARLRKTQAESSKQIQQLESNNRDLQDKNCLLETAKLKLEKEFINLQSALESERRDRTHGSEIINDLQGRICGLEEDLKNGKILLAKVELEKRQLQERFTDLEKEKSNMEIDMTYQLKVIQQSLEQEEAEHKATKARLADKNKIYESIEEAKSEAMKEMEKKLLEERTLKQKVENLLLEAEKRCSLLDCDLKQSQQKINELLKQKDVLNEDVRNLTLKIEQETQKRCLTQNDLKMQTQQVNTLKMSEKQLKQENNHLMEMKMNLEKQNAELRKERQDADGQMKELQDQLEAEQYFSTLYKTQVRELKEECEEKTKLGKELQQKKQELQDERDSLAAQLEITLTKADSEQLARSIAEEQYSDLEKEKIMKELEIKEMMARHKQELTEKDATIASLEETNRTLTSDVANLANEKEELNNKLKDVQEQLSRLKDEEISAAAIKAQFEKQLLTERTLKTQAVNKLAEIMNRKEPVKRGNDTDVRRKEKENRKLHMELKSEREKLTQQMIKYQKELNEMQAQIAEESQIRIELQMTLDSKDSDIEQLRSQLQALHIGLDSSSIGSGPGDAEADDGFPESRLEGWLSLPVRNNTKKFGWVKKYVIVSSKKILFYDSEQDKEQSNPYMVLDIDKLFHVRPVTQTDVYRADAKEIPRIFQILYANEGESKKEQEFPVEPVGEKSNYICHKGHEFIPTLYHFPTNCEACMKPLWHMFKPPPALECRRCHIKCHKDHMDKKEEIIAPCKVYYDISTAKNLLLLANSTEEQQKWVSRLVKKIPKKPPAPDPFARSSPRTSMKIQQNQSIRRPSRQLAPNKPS

[1] = system: spontaneously hypertensive rat, renal hypertensive rat and deoxycortisone acetate salt hypertensive rat models; details: cited from earlier work
neointimal formation = details: rats; cited from earlier work
[2] = system: congestive heart failure in Dahl salt-sensitive rats; details: rat, in vivo; cited from earlier work
[3] = system: IL-1 beta-induced coronary stenosis; details: long term treatment; cited from earlier work
rat stroke model = details: in vivo; cited from earlier work

ROCK1, sequence (Q13464 whole entry, species assumed): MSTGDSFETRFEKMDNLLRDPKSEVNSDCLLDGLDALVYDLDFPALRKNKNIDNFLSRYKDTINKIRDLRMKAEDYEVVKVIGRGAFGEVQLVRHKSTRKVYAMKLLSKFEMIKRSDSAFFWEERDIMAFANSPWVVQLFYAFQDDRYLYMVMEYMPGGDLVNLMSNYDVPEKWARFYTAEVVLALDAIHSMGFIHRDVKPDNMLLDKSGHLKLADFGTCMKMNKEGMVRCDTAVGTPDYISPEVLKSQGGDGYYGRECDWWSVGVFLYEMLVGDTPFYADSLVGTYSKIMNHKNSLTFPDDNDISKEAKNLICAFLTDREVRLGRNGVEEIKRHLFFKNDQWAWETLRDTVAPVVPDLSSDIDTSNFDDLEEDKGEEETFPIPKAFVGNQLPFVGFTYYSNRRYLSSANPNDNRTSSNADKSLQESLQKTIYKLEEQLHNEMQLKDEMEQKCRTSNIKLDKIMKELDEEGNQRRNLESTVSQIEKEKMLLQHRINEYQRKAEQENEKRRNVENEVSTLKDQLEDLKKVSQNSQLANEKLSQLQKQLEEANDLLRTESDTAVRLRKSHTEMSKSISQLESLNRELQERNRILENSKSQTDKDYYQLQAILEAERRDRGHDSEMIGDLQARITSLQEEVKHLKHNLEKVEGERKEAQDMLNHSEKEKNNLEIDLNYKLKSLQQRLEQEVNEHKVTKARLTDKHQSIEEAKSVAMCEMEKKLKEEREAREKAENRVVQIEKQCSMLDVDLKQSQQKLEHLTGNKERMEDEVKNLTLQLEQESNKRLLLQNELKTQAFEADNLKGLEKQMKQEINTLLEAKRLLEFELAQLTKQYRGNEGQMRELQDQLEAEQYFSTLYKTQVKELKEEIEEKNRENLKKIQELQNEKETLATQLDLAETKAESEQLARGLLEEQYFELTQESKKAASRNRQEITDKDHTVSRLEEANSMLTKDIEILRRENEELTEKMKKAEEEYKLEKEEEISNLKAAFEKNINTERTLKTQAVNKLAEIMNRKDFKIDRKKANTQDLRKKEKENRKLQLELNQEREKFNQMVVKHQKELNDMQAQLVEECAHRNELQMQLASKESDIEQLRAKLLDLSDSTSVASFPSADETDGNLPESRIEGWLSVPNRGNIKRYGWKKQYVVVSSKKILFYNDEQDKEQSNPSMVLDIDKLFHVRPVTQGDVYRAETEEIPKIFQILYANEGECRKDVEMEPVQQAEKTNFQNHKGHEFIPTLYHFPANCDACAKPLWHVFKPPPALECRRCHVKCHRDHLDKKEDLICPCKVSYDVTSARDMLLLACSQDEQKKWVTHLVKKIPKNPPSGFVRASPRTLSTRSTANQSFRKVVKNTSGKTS

IC50 (ROCK1) [nM] | IC50 (ROCK2) [nM] | Compound | also measured
8.78 | 3.25 | COc1cc(NC(=O)[C@H](N)Cc2ccc3ccccc3c2)ccc1-c1cn[nH]c1 [Example 6, (R)-2-amino-N-(3-methoxy-4-(1H-pyrazol-4-yl)phenyl)-3-(naphthalen-2-yl)propanamide] | –
31.6 | 17.9 | COc1cc(NC(=O)[C@@H](N)Cc2csc3ccccc23)ccc1-c1cn[nH]c1 [Example 9, (S)-2-amino-3-(benzo[b]thiophen-3-yl)-N-(3-methoxy-4-(1H-pyrazol-4-yl)phenyl) propanamide] | –
50 | 14.3 | COc1cc(NC(=O)[C@H](N)Cc2cccc(C(F)(F)F)c2)ccc1-c1cn[nH]c1 [Example 11, (R)-2-amino-N-(3-methoxy-4-(1H-pyrazol-4-yl)phenyl)-3-(3-(trifluoromethyl)phenyl)propanamide] | –
19.9 | 23.6 | COc1cc(NC(=O)[C@H](N)Cc2ccccc2C(F)(F)F)ccc1-c1cn[nH]c1 [Example 12, (R)-2-amino-N-(3-methoxy-4-(1H-pyrazol-4-yl)phenyl)-3-(2-(trifluoromethyl)phenyl)propanamide] | –
68.4 | 10.3 | COc1cc(NC(=O)[C@H](N)Cc2ccc(-c3ccccc3)cc2)ccc1-c1cn[nH]c1 [Example 13, (R)-3-([1,1′-biphenyl]-4-yl)-2-amino-N-(3-methoxy-4-(1H-pyrazol-4-yl)phenyl)propanamide] | –
12.6 | 13.4 | COc1cc(NC(=O)[C@H](N)Cc2cc(F)cc(F)c2)ccc1-c1cn[nH]c1 [Example 14, (R)-2-amino-3-(3,5-difluorophenyl)-N-(3-methoxy-4-(1H-pyrazol-4-yl)phenyl) propanamide] | –
13.9 | 37.5 | COc1cc(NC(=O)[C@H](N)Cc2ccccc2Cl)ccc1-c1cn[nH]c1 [Example 19, (R)-2-amino-3-(2-chlorophenyl)-N-(3-methoxy-4-(1H-pyrazol-4-yl)phenyl) propanamide] | –
111 | 8.51 | O=C(Cc1ccccc1Cl)Nc1ccc(-c2cn[nH]c2)cc1OCCN1CCCC1 [Example 23, N-(4-(1H-Pyrazol-4-yl)-2-(2-(pyrrolidin-1-yl)ethoxy)phenyl)-2-(2-chlorophenyl)acetamide] | –
874 | 342 | CN(C)CCOc1cc(-c2cn[nH]c2)c(F)cc1NC(=O)[C@H](N)CCc1ccccc1 [Example 27, (R)-2-Amino-N-(2-(2-(dimethylamino)ethoxy)-5-fluoro-4-(1H-pyrazol-4-yl)phenyl)-4-phenylbutanamide] | –
42.5 | 17.8 | N[C@H](CCc1ccccc1)C(=O)Nc1ccc(-c2cn[nH]c2)cc1 [Example 28, (R)—N-(4-(1H-Pyrazol-4-yl)phenyl)-2-amino-4-phenylbutanamide] | –
19.6 | 4.06 | O=C(Cc1ccccc1Cl)Nc1ccc(-c2cn[nH]c2)cc1 [Example 29, N-(4-(1H-Pyrazol-4-yl)phenyl)-2-(2-chlorophenyl)acetamide] | –
232 | 167 | COc1cc(NC(=O)[C@H](N)CCc2ccccc2)ccc1-c1c[nH]nc1C [Example 30, (R)-2-Amino-N-(3-methoxy-4-(3-methyl-1H-pyrazol-4-yl)phenyl)-4-phenylbutanamide] | –
– | – | C[C@@H](N)[C@H]1CC[C@H](C(=O)Nc2ccncc2)CC1 [Example Y-27632, Y-27632] | blood pressure ([1]; control rats): only a minor effect on blood pressure; blood pressure ([1]; three rat models of hypertension): significantly decrease blood pressure; neointimal formation (neointimal formation): inhibited neointimal formation; ventricular hypertrophy, fibrosis and function [2]: improve ventricular hypertrophy, fibrosis and function
– | – | O=S(=O)(c1cccc2cnccc12)N1CCCNCC1 [fasudil] | coronary constrictive remodeling [3]: promote a regression of coronary constrictive remodeling; coronary stenosis [3]: progressively reduce coronary stenosis; infarct size and neurologic deficit (rat stroke model): reduce both the infarct size and neurologic deficit
